From patent publication US10765625B2, “Knottin-drug conjugates and methods of using the same” (THE BOARD OF TRUSTEES OF THE LELAND STANFORD JUNIOR …, priority 2016, dated 2020)

Tests used:
U87MG cells = assay: Competition binding assay with AF488-labeled EETI-2.5F (AF488-1), flow cytometry; details: competition with 1 nM AF488-1, 4° C., 3 hours, read-out: IC50 (nM), binding affinity
Description: Once the knottin-drug conjugates 5a-d were prepared, their binding affinity to U87MG glioblastoma cells, which are known to have elevated expression of tumor-associated integrins, was tested. […] To measure the relative binding affinities of knottins 1 and 2 and KDCs 5a-d, competition binding assays were performed using AlexaFluor 488-conjugated EETI-2.5F (AF488-1) as previously described (J. W. Kim, et al., J. Am. Chem. Soc. 2015, 137, 6-9). Cells (5×10^4 per sample) were detached with 0.05% Trypsin-EDTA, washed with IBB (25 mM Tris pH 7.4, 150 mM NaCl, 2 mM CaCl2, 1 mM MgCl2, 1 mM MnCl2, and 0.1% bovine serum albumin), and incubated with 1 nM AF488-1 and varying concentrations of competitors in 800 μL of IBB at 4° C. for 3 hours. The cells were washed twice with 800 μL of PBSA (phosphate buffered saline containing 0.1% bovine serum albumin) and the fluorescence of the surface-bound AF488-1 was determined using flow cytometry. The fluorescence was normalized to that of cells treated with AF488-1 alone to obtain the fraction bound. Half-maximal inhibitory concentration (IC50) values were determined by nonlinear regression analysis. Error bars represent the standard deviation of experiments performed in triplicate.

[1] = tested on: PANC-1 pancreatic cancer cells; assay: Cell proliferation, CCK-8 colorimetric assay; type: cell-based; details: 4 d after treatment, read-out: ED50 (nM), cell growth inhibition
Description: (§1) U87MG, and PANC-1 cells were grown in Dulbecco's Modified Eagle Medium (DMEM) with 10% fetal bovine serum (FBS) and 1% penicillin/streptomycin. MDA-MB-468 cells were grown in DMEM and Ham's F-12 medium (DMEM/F12) with 10% FBS and 1% penicillin/streptomycin. A2780 and BxPC3 cells were grown in Roswell Park Memorial Institute medium (RPMI) 1640+L-glutamine, with 10% FBS and 1% penicillin/streptomycin. D270 cells were grown in MEM (Richter's modification, no phenol red) with 10% FBS and 0.1% Gentamicin. Unless otherwise specified, cells were incubated at 37° C., 5% CO2. Flow cytometry was performed using an EMD Millpore Guava EasyCyte 8HT flow cytometer and the resulting data were evaluated using FlowJo software provided by TreeStar, Inc. Cell proliferation was measured using the Dojindo Cell Counting Kit-8 by replacing the media in each well with 100 μL of media containing 10% WST-8. After incubation for 1 h at 37° C., absorbance, A, at 450 nm was measured with a BioTek Synergy H4 microtiter plate reader. The background signal of CCK-8 alone was subtracted from all samples. Cell proliferation was then expressed as a percentage of absorbance relative to the control of untreated cells (Equation 2). Nonlinear regression analysis was performed using GraphPad Prism.
(§2) Having identified KDC 5d as a potent inhibitor of U87MG cells with desirable payload-release properties, its efficacy against a variety of other cell lines in comparison with Gemcitabine (3) was next tested. Cells were seeded in a 96-well plate at a density of 2,500 cells per well and grown overnight at 37° C., 5% CO2 in the media described in Section 1.3. Cells were subsequently treated with 100 μL of fresh media, containing 50 nM of 3 or 5d. Cells were incubated at 37° C., 5% CO2 for 4 d. Cell proliferation was measured using the Cell Counting Kit-8 by replacing the media in each well with 100 μL of media containing 10% WST-8. After incubation for 1 h at 37° C., absorbance at 450 nm was measured with a Synergy H4 microtiter plate reader. Cell proliferation was measured according to the method described in Section 1.3. Error bars represent the standard deviation of experiments performed in triplicate.

D270 glioblastoma cells = assay: Cell proliferation, CCK-8 colorimetric assay; type: cell-based; details: 4 d after treatment, read-out: ED50 (nM), cell growth inhibition
Description: as §1, §2

[2] = tested on: A2780 ovarian cancer cells; assay: Cell proliferation, CCK-8 colorimetric assay; type: cell-based; details: 4 d after treatment, read-out: ED50 (nM), cell growth inhibition
Description: as §1, §2

[3] = tested on: MDA-MB-468 breast cancer cells; assay: Cell proliferation, CCK-8 colorimetric assay; type: cell-based; details: 4 d after treatment, read-out: ED50 (nM), cell growth inhibition
Description: as §1, §2

[4] = tested on: BxPC3 pancreatic cancer cells; assay: Cell proliferation, CCK-8 colorimetric assay; type: cell-based; details: 4 d after treatment, read-out: ED50 (nM), cell growth inhibition
Description: as §1, §2

`CC(C)C[C@@H]1NC(=O)[C@@H]2CSSC[C@@H](C(=O)NCC(=O)O)NC(=O)[C@H](Cc3ccccc3)NC(=O)CNC(=O)[C@H](CC(N)=O)NC(=O)[C@@H]3CCCN3C(=O)CNC(=O)[C@@H]3CSSC[C@H](NC(=O)[C@H]([C@@H](C)O)NC(=O)[C@H](CC(C)C)NC(=O)[C@@H]4CCCN4C(=O)[C@@H]4CCCN4C(=O)[C@H](CC(N)=O)NC(=O)[C@H](CC(=O)O)NC(=O)CNC(=O)[C@H](CCCNC(=N)N)NC(=O)[C@@H]4CCCN4C(=O)[C@H](CCCNC(=N)N)NC(=O)[C@@H]4CCCN4C(=O)[C@@H](NC(=O)CN)CSSC[C@H](NC(=O)CNC(=O)[C@H](C)NC1=O)C(=O)N[C@@H](C(C)C)C(=O)N3)C(=O)N[C@@H](CCCn1cc(CCC(=O)N[C@H](C(=O)N[C@@H](C)C(=O)Nc3ccc(COC(=O)Nc4ccn([C@@H]5O[C@H](CO)[C@@H](O)C5(F)F)c(=O)n4)cc3)C(C)C)nn1)C(=O)N[C@@H](CCC(N)=O)C(=O)N[C@@H](CC(=O)O)C(=O)N[C@@H](CO)C(=O)N[C@@H](CC(=O)O)C(=O)N2` [5d] gave an IC50 (U87MG cells) of 1.5 ± 0.2 nM, an EC50 [1] of 2.1 ± 0.2 nM and an EC50 (D270 glioblastoma cells) of 7.9 ± 0.8 nM. The EC50 [2] was 2.3 ± 0.5 nM, the EC50 [3] was 0.6 ± 0.1 nM and the EC50 [4] was 1.8 ± 0.8 nM.
